Source: article PMC8429736, “Pharmacological characterization of mutant huntingtin aggregate-directed PET imaging tracer candidates” (Scientific Reports, 2021)
Read-outs that look alike come from different tables or passages of the source.

Tests used:
[1] = parameters: method as in PMID 34351166, PMID 32662649; settings: cited from earlier work
Exon1-Q46 aggregates = biological target: T1, Exon1-Q46 aggregates (Homo sapiens, UniProt P42858, INS38QQQQQQQQQQQQQQQQQQQQQQQQQ); assay: RBA saturation binding, recombinant Exon1-Q46 aggregates
T1 construct: MBP-HTT(1-89)Q46-His(6x); MBP (N, cleaved yes); made in house; host or cells: E. coli BL21 (DE3)
T1 sequence (P42858 with tags, fused parts or gaps with the stated changes): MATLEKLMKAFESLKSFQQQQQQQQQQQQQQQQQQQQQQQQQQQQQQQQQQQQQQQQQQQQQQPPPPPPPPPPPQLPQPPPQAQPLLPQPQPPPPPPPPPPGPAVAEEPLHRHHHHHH
Method: For N-terminal tag cleavage, proteins at 30 µM in 2 mL reaction tubes were incubated with 150 µg/mL thrombin (Sigma, T4648) in 50 mM Tris (pH 8.0), 150 mM NaCl, 2 mM CaCl2 for 16 h at 37 °C.
For radioligand binding assays (RBA) (see below) and radiometric filter trap assays (RAFTA) (see below), aggregates were separated by centrifugation (5 min 16,000×g) and resuspended with assay buffer (50 mM Tris pH 8.0, 150 mM NaCl) (see Supplementary Fig. S2B). Protein concentrations always refer to the starting peptide concentrations (i.e., peptide concentration applied in the aggregation reaction before thrombin cleavage) since post-cleaved aggregates are heterogeneous and the number of peptides per aggregate is unknown.
Samples were then transferred onto a 96-well GF/B filter plate (Perkin Elmer, #6005177) using a Filtermate Harvester, aspirated by vacuum and wells washed twice with 200 µL PBS. After drying the filter plates for 1 h at 55 °C the back of the plate was sealed with aluminum cover and 30 µL of scintillation fluid (Perkin Elmer, #6013641) per well was added. The tops of the plates were sealed, and the plates were incubated for 15 min in the dark and counted in a TopCount or MicroBeta2 reader (both Perkin Elmer).
For saturation binding experiments, aggregate lysate preparation and final concentration in the assay, assay buffer, incubation times and plate processing were identical to the competition format. Radioligand was titrated up to 100 nM. Raw cpm were converted into nM using a calibration line of total added radioligand without washing and filtering (spiked onto the filter plate and dried) (e.g., X) and normalized to the concentration of protein (e.g., Y) to finally obtain […] (e.g., X/Y). Specific binding (SB) was calculated as full binding minus full competition (in the presence of excess unlabeled ligand) and a hyperbolic mono-phasic fit was applied using GraphPad Prism to determine Kd and Bmax.

aggregated ataxin 1 = assay: ARG, Sca1 mouse models; type: binding
Method: (§1) Twenty µm-thick sections were prepared from brains of disease mouse models and WT mice or human post-mortem brain samples by using a cryostat, mounted on superfrost slides and stored at -80 °C for a maximum of 2 weeks. On the day of the experiment, slides were adapted to room temperature for 30 min and then equilibrated by immersion into assay buffer (50 mM Tris–HCl pH 7.4; 120 mM NaCl; 5 mM KCl; 2 mM CaCl2; 1 mM MgCl2) for 20 min at room temperature.
(§2) Radioligand solutions were prepared in assay buffer. Optimal radioligand concentrations were determined in advance based on signal-to-background ratio obtained in mouse or human brain tissue. The solutions were mixed in a Coplin jar (Sigma, S5516-6EA) by gently shaking at 175 rpm for 10 min at room temperature. Sections were incubated by immersion into assay buffer containing either only radioligand (total binding or TB) or radioligand plus 10 µM of unlabeled compound (non-specific binding or NSB) for 60 min at room temperature. Afterwards slides were washed three times for 10 min with ice-cold washing buffer (50 mM Tris–HCl (pH 7.4)) at 4 °C and dipped for three seconds in ice-cold distilled water to remove buffer salts. […]

[2] = tested on: mHTT aggregates in R6/2 mice brain sections; assay: In vitro ARG, R6/2 mouse brain sections; type: binding; settings: 4-, 8- and 12-week-old R6/2 mice
Method: as §1, §2

[3] = biological target: phospho-Tau tangles (AT8 antibody) (Homo sapiens, UniProt P10636); assay: HR ARG co-registration with AT8 antibody, human AD brain sections; type: binding; settings: 10 nM CHDI-180, 10 nM CHDI-626, 0.1 nM PiB, 1 nM T808
phospho-Tau tangles (AT8 antibody), sequence (P10636 623-695 limits assumed): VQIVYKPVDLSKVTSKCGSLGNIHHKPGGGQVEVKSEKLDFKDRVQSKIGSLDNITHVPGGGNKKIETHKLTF

[4] = biological target: beta amyloid plaques in human AD brain sections (Homo sapiens, UniProt P05067); assay: ARG, human post-mortem AD frontal cortex sections; type: binding; settings: 1 nM radioligand
beta amyloid plaques in human AD brain sections, sequence (P05067 672-713 limits assumed): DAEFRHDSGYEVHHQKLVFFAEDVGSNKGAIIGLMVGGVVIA

Structure (SMILES): COc1ccc(COc2ccc3oc(-c4ccc(=O)n(C)n4)nc3c2)nc1 [CHDI-180]
- plasma, microsomal, and hepatocyte stability [1]: acceptable
- Bmax (Exon1-Q46 aggregates; representative single experiment (Fig. 2A)): 0.3 nmol/μmol
- Kd (Exon1-Q46 aggregates; representative single experiment (Fig. 2A), read-out: Kd): 3.2 nM
- Kd (Exon1-Q46 aggregates; tritiated compound, mean ± SD, read-out: Kd Exon1-Q46): 2.6 ± 0.9 nM
- binding to aggregated ataxin 1 (aggregated ataxin 1; 1 nM radioligand, PcP2-82Q and SCA154Q/2Q mice): bound to aggregated ataxin 1
- ARG signals compared to the R6/2 HD model (aggregated ataxin 1; brain sections of 2 Sca mouse models): much lower
- specific binding to STR, CTX and HPC with age [2]: age-dependent increase in specific binding
- co-registration with AT8-positive phospho-Tau immunoreactivity [3]: did not co-register
- binding in AD post-mortem brain tissues [4]: 5.6 ± 0.7 fmol/mg
- binding in AD post-mortem brain tissues ([4]; gray matter): 5.6 ± 0.7 fmol/mg tissue
